Test results taken from patent US9024041B2, “P38 MAP kinase inhibitors” (Respivert Ltd., priority 2010, dated 2015).
Marks after values point to notes of the source that are not given here.

Columns and labels:
[1] = target: T1, p38 MAPKα isoform (MAPK14: Invitrogen) (Homo sapiens, UniProt Q16539); assay: p38 MAPKα enzyme inhibition assay (FRET, Z-LYTE, via MAPKAP-K2 activation); type: biochemical; conditions: 2 hr pre-incubation, ATP 10.0 μM; read-out: Enzyme Inhibition IC50 p38α
T1 construct: purchased Invitrogen
T1 sequence (Q16539 whole entry, canonical isoform): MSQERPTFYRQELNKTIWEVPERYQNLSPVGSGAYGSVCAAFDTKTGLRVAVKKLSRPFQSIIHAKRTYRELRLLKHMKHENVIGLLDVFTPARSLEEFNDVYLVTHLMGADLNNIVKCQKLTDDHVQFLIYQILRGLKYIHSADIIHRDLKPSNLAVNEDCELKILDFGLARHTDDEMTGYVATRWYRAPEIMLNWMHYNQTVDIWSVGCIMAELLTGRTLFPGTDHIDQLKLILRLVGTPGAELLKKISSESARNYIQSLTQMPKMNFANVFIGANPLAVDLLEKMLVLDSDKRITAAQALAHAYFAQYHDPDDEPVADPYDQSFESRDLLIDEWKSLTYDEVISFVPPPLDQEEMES

[2] = target: T2, Recombinant, phosphorylated p38 MAPKγ (MAPK12:Invitrogen) (Homo sapiens, UniProt P53778); assay: p38 MAPKγ enzyme inhibition assay (FRET, Z-LYTE); type: biochemical; conditions: 2 hr pre-incubation, ATP 100 μM; read-out: Enzyme Inhibition IC50 p38γ
T2 construct: purchased Invitrogen
T2 sequence (P53778 1-367): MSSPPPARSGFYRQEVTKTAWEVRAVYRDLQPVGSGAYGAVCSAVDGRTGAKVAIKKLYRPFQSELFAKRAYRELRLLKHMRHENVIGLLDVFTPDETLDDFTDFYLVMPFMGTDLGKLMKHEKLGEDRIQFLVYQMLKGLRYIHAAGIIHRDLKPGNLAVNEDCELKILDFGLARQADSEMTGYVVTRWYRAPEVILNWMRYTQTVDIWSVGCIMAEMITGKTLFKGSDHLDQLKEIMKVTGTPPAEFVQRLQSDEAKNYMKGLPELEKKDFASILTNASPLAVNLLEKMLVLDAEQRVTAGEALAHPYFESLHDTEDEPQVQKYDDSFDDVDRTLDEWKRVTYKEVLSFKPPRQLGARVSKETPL
Procedure: The enzyme inhibitory activities of compounds disclosed herein were determined by fluorescence resonance energy transfer (FRET) using synthetic peptides labelled with both donor and acceptor fluorophores (Z-LYTE, Invitrogen Ltd., Paisley, UK). Recombinant, phosphorylated p38 MAPKγ (MAPK12:Invitrogen) was diluted in HEPES buffer, mixed with the test compound at the desired final concentrations and incubated for 2 hr at RT. The FRET peptide (2 μM) and ATP (100 μM) were added to the enzyme/compound mixture and incubated for 1 hr. Development reagent (protease) was added for 1 hr prior to detection in a fluorescence microplate reader (Varioskan® Flash, ThermoFisher Scientific). The site-specific protease cleaves non-phosphorylated peptide only and eliminates the FRET signal. Phosphorylation levels of each reaction were calculated using the ratio of coumarin emission (donor) over fluorescein emission (acceptor) for which high ratios indicate high phosphorylation and low ratios indicate low phosphorylation levels.

[3] = tested on: LPS-induced TNFα release in THP-1 cells; assay: LPS-induced TNFα release in THP-1 cells; type: cell-based; conditions: Homo sapiens, 3 μg/mL LPS, 4 hr
Procedure: Cellular Potency as Determined by LPS-Induced TNFα Release in THP-1 Cells
THP-1 cells, a human monocytic cell line, were stimulated with 3 μg/mL of LPS (from E. Coli; 0111:B4, Sigma) for 4 hr and the supernatant collected for determination of the TNFα concentration by sandwich ELISA (Duo-set, R&D systems). The inhibition of TNFα production was calculated at each concentration by comparison with vehicle control. The 50% inhibitory concentration (IC50) was determined from the resultant concentration-response curve.

[4] = tested on: LPS-induced TNFα release in d-U937 cells; assay: LPS-induced TNFα release in d-U937 cells; type: cell-based; conditions: Homo sapiens, dU937, 4 h; read-out: LPS/TNFα REC50 d-U937
Procedure: (§1) Cellular Potency as Determined by LPS-Induced TNFα/IL-8 Release in d-U937Cells
(§2) U937 cells, a human monocytic cell line, were differentiated to macrophage-type cells by incubation with phorbol myristate acetate (PMA; 100 ng/mL) for 48 to 72 hr. Cells were pre-incubated with final concentrations of test compound for 2 hr and were then stimulated with 0.1 μg/mL of LPS (from E. Coli: O111:B4, Sigma) for 4 hr. The supernatant was collected for determination of TNFα and IL-8 concentrations by sandwich ELISA (Duo-set, R&D systems). […] The relative 50% effective concentration (REC50) was determined from the resultant concentration-response curve. The inhibition of IL-8 production was calculated at each concentration of test compound by comparison with vehicle control. The 50% inhibitory concentration (IC50) was determined from the resultant concentration-response curve.

[5] = tested on: LPS-induced IL-8 release in d-U937 cells; assay: LPS-induced IL-8 release in d-U937 cells; type: cell-based; conditions: Homo sapiens, dU937, 0.1 μg/mL LPS, 4 hr
Procedure: as §1, §2

[6] = tested on: Poly I:C-induced ICAM-1 expression in BEAS2B cells; assay: Poly I:C-induced ICAM-1 induction in BEAS2B cells; type: cell-based; conditions: Homo sapiens, BEAS-2B, poly I:C 1 μg/mL, 18 hr, read-out: PolyI:C/ICAM1 IC50 BEAS2B
Procedure: Cellular Potency as Determined by Poly I:C-Induced ICAM-1 Induction in BEAS2B Cells
Poly I:C (1 μg/mL) (Invivogen Ltd., San Diego, Calif.) was transfected into BEAS2B cells (human bronchial epithelial cells, ATCC) with Oligofectamine (Invitrogen, Carlsbad, Calif.). Cells were pre-incubated with final concentrations of test compounds for 2 hr and the level of ICAM1 expression on the cell surface was determined by cell-based ELISA. At a time point 18 hr after poly I:C transfection, cells were fixed with 4% formaldehyde in PBS and then endogenous peroxidase was quenched by the addition of 0.1% sodium azide and 1% hydrogen peroxide. Cells were washed with wash-buffer (0.1% Tween in PBS: PBS-Tween). and after blocking the wells with 5% milk in PBS-Tween for 1 hr, the cells were incubated with anti-human ICAM-1 antibody (Cell Signaling Technology, Danvers, Mass.) in 1% BSA PBS overnight at 4° C. The cells were washed with PBS-Tween and incubated with the secondary antibody (HRP-conjugated anti-rabbit IgG, Dako Ltd., Glostrup, Denmark). The ICAM-1 signal was detected by adding substrate and reading the absorbance at 450 nm against a reference wavelength of 655 nm using a spectrophotometer. The cells were then washed with PBS-Tween and total cell numbers in each well were determined by reading absorbance at 595 nm after Crystal Violet staining and elution by 1% SDS solution. The measured OD 450-655 readings were corrected for cell number by dividing with the OD595 reading in each well. The inhibition of ICAM-1 expression was calculated at each concentration of test compound by comparison with vehicle control. The 50% inhibitory concentration (IC50) was determined from the resultant concentration-response curve.

[7] = tested on: Differentiated U937 cells; assay: MTT assay: cell viability on exposure to test compounds; type: cell-based, human; conditions: percentage loss of cell viability vs vehicle; for MTT Assay (Viability) 4 h d-U937: 5% FCS; for MTT Assay (Viability) 24 h d-U937: 10% FCS
Procedure: MTT Assay: Determination of Cell Viability on Exposure to Test Compounds
Differentiated U937 cells were pre-incubated with each test compound under two protocols: the first for 4 hr in 5% FCS and the second in 10% FCS for 24 h. The supernatant was replaced with 200 μL of new media and 10 μL of MTT stock solution (5 mg/mL) was added to each well. After incubation for 1 hr the media were removed, 200 μL of DMSO was added to each well and the plates were shaken lightly for 1 hr prior to reading the absorbance at 550 nm. The percentage loss of cell viability was calculated for each well relative to vehicle (0.5% DMSO) treatment. Consequently an apparent increase in cell viability for drug treatment relative to vehicle is tabulated as a negative percentage.

| Compound | IC50 [1] [nM] | IC50 [2] [nM] | IC50 [3] [nM] | EC50 [4] [nM] | IC50 [5] [nM] | IC50 [6] [nM] | MTT Assay (Viability) 4 h d-U937 ([7]; 1 μg/mL) [%] | MTT Assay (Viability) 24 h d-U937 ([7]; 1 μg/mL) [%] | MTT Assay (Viability) 4 h d-U937 ([7]; 10 μg/mL) | MTT Assay (Viability) 24 h d-U937 ([7]; 10 μg/mL) |
| --- | --- | --- | --- | --- | --- | --- | --- | --- | --- | --- |
| COCC(=O)Nc1cc(Oc2ccc(NC(=O)Nc3cc(C(C)(C)C)nn3-c3ccc(Cl)c(Cl)c3)c3ccccc23)ccn1 [Example 55, N-(4-(4-(3-(3-tert-butyl-1-(3,4-dichlorophenyl)-1H-pyrazol-5-yl)ureido)naphthalen-1-yloxy)pyridin-2-yl)-2-methoxyacetamide] | 14.9 | 102 | 4.3 | 0.8 | 5.5 | 14.7 | −16.1 | −71.1 |  |  |
| COCC(=O)Nc1cc(Oc2ccc(NC(=O)Nc3cc(C(C)(C)C)nn3-c3ccc(OC)c(OC)c3)c3ccccc23)ccn1 [Example 11, N-(4-(4-(3-(3-tert-Butyl-1-(3,4-dimethoxyphenyl)-1H-pyrazol-5-yl)ureido)naphthalen-1-yloxy)pyridin-2-yl)-2-methoxyacetamide] | 4 | 151 | 0.6 | 0.2 | 3.6 | 2.5 | −9.3 | −0.8 |  |  |
| CNC(=O)Nc1cc(Oc2ccc(NC(=O)Nc3cc(C(C)(C)C)nn3-c3ccc(OC)cc3)c(C)c2C)ccn1 [Example 37, 1-(4-(4-(3-(3-tert-butyl-1-(4-methoxyphenyl)-1H-pyrazol-5-yl)ureido)-2,3-dimethylphenoxy)pyridin-2-yl)-3-methylurea] | 29.1 | 117 | 1.5 | 1.4 | 18.1 | 2.6 | 5.3 | 42.7 |  |  |
| COCC(=O)Nc1cc(Oc2ccc(NC(=O)Nc3cc(C(C)(C)C)nn3-c3ccc(OC)cc3)c3ccccc23)ccn1 [Example 3, N-(4-((4-(3-(3-(tert-Butyl)-1-(4-methoxyphenyl)-1H-pyrazol-5-yl)ureido)naphthalen-1-yl)oxy)pyridin-2-yl)-2-methoxyacetamide] | 15.5 | 58.2 | 1.5 | 1.9 | 3.3 | 5.7 | −28.4 | −51.5 |  |  |
| COCC(=O)Nc1cc(Oc2ccc(NC(=O)Nc3cc(C(C)(C)C)nn3-c3ccc(SC)cc3)c3ccccc23)ccn1 [Example 44, N-(4-(4-(3-(3-tert-butyl-1-(4-(methylthio)phenyl)-1H-pyrazol-5-yl)ureido)naphthalen-1-yloxy)pyridin-2-yl)-2-methoxyacetamide] | 15.1 | 194 | 1.2 | 0.1 | 5.9 | 7.5 | −4.0 | −16.4 |  |  |
| CCNC(=O)Nc1cc(Cc2ccc(NC(=O)Nc3cc(C(C)(C)C)nn3-c3ccc(C)cc3)c3ccccc23)ccn1 [Example 23, 1-(3-(tert-Butyl)-1-(p-tolyl)-1H-pyrazol-5-yl)-3-(4-((2-(3-ethylureido)pyridin-4-yl)methyl)naphthalen-1-yl)urea] | 20.3 | 3010 | 12.4 | 3.4 | 21.4 | 20.3 |  |  | 15.2^b % | −1.7^b % |
| COCC(=O)Nc1cc(Oc2ccc(NC(=O)Nc3cc(C(C)(C)C)nn3-c3ccc(C)nc3)c3ccccc23)ccn1 [Example 57, N-(4-(4-(3-(3-tert-butyl-1-(6-methylpyridin-3-yl)-1H-pyrazol-5-yl)ureido)naphthalen-1-yloxy)pyridin-2-yl)-2-methoxyacetamide] | < 0.2 | 246 | 1.6 | 0.3 | 17.2 | 8.6 | −3.4 | 76.0 |  |  |
| COc1ccc(-n2nc(C(C)(C)C)cc2NC(=O)Nc2ccc(Oc3ccnc(NC(=O)N4CCOCC4)c3)c3ccccc23)cc1 [Example 9, N-(4-((4-(3-(3-tert-Butyl-1-(4-methoxyphenyl)-1H-pyrazol-5-yl)ureido)naphthalen-1-yl)oxy)pyridin-2-yl)morpholine-4-carboxamide] | 2.7 | 203 | 0.5 | 0.6 | 1.4 | 2.1 | −5.7 | 18.6 |  |  |
| COc1ccc(-n2nc(C(C)(C)C)cc2NC(=O)Nc2ccc(Oc3ccnc(NC(=O)N4CCOCC4)c3)c3ccccc23)cn1 [Example 40, N-(4-(4-(3-(3-tert-butyl-1-(6-methoxypyridin-3-yl)-1H-pyrazol-5-yl)ureido)naphthalen-1-yloxy)pyridin-2-yl)morpholine-4-carboxamide] | 15.6 | 113 | 1.5 | 0.9 | 6.2 | 4.8 | −12.1 | −12.0 |  |  |
| CC(C)(C)c1cc(NC(=O)Nc2ccc(Oc3ccnc(NC(=O)N4CCOCC4)c3)c3ccccc23)n(-c2ccc(O)c(Cl)c2)n1 [Example 12, N-(4-((4-(3-(3-(tert-Butyl)-1-(3-chloro-4-hydroxyphenyl)-1H-pyrazol-5-yl)ureido)naphthalen-1-yl)oxy)pyridin-2-yl)morpholine-4-carboxamide] | 2.7 | 147 | 3.3 | 0.4 | 8.4 | 3.2 | −6.2 | −42.9 |  |  |
